Where a name gives a salt, the structure may show the parent alone.
What was measured:
Assay type in all cases: biochemical
FAAH [1] = target: T1, FAAH (Homo sapiens (Human), UniProt O00519); assay: Assay Method 2: FAAH assay, cells transfected with human FAAH; settings: T84 or human FAAH-transfected SK-N-MC cell homogenate, 3H-AEA tracer 80 nM, 1 h at rt
Protocol: Assay Method 2 A. Transfection of Cells with Human FAAH
(§1) A 10-cm tissue culture dish with a confluent monolayer of SK-N-MC cells was split 2 days (d) prior to transfection. Using sterile technique, the media was removed and the cells were detached from the dish by the addition of trypsin. One fifth of the cells were then placed onto a new 10-cm dish. Cells were grown in a 37° C. incubator with 5% CO2 in Minimal Essential Media Eagle with 10% Fetal Bovine Serum. After 2 d, cells were approximately 80% confluent. These cells were removed from the dish with trypsin and pelleted in a clinical centrifuge. The pellet was re-suspended in 400 μL complete media and transferred to an electroporation cuvette with a 0.4 cm gap between the electrodes. Supercoiled human FAAH cDNA (1 pg) was added to the cells and mixed. The voltage for the electroporation was set at 0.25 kV, and the capacitance was set at 960 μF. After electroporation, the cells were diluted into complete media (10 mL) and plated onto four 10-cm dishes. Because of the variability in the efficiency of electroporation, four different concentrations of cells were plated. The ratios used were 1:20, 1:10, and 1:5, with the remainder of the cells being added to the fourth dish. The cells were allowed to recover for 24 h before adding the selection media (complete media with 600 μg/mL G418). After 10 d, dishes were analyzed for surviving colonies of cells. Dishes with well-isolated colonies were used. Cells from individual colonies were isolated and tested.
(§2) T84 frozen cell pellets or transfected SK-N-MC cells (contents of 1×15 cm culture dishes) were homogenized in 50 mL of FAAH assay buffer (125 mM Tris, 1 mM EDTA, 0.2% Glycerol, 0.02% Triton X-100, 0.4 mM Hepes, pH 9). The assay mixture consisted of 50 μL of the cell homogenate, 10 μL of the test compound, and 40 pt of anandamide [1-^3H-ethanolamine] (^3H-AEA, Perkin-Elmer, 10.3 Ci/mmol), which was added last, for a final tracer concentration of 80 nM. The reaction mixture was incubated at rt for 1 h. During the incubation, 96-well Multiscreen filter plates (catalog number MAFCNOB50; Millipore, Bedford, Mass., USA) were loaded with 25 μL of activated charcoal (Multiscreen column loader, catalog number MACL09625, Millipore) and washed once with 100 μL of MeOH. Also during the incubation, 96-well DYNEX MicroLite plates (catalog number NL510410) were loaded with 100 μL of MicroScint40 (catalog number 6013641, Packard Bioscience, Meriden, Conn., USA). After the 1 h incubation, 60 μL of the reaction mixture were transferred to the charcoal plates, which were then assembled on top of the DYNEX plates using Centrifuge Alignment Frames (catalog number MACF09604, Millipore). The unbound labeled ethanolamine was centrifuged through to the bottom plate (5 min at 2000 rpm), which was preloaded with the scintillant, as described above. The plates were sealed and left at rt for 1 h before counting on a Hewlett Packard TopCount.

rat FAAH = rat FAAH (Rattus norvegicus (Rat), UniProt P97612); assay: Assay Method 3: FAAH assay, cells transfected with rat FAAH; settings: T84 or rat FAAH-transfected SK-N-MC cell homogenate, 3H-AEA tracer 80 nM, 1 h at rt
Sequence of rat FAAH (P97612 whole entry): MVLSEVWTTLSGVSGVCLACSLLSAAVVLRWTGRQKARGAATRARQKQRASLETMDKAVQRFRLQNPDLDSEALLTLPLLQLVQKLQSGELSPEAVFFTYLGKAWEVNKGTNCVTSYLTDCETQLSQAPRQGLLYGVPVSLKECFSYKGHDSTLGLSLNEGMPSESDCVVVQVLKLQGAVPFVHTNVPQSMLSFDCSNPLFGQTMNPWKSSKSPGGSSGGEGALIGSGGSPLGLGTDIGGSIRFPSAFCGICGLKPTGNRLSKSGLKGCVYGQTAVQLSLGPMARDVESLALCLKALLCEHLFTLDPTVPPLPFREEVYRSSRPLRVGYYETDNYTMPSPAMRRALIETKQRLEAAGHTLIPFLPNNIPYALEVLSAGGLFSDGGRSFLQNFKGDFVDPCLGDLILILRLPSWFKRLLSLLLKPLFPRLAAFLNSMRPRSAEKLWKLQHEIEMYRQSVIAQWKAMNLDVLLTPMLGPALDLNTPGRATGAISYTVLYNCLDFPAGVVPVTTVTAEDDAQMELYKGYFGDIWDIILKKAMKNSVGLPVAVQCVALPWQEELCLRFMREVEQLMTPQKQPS
Protocol: Assay Method 3 A. Transfection of Cells with Rat FAAH
as §1, with “rat” for “human”, “μg)” for “pg)”
as §2, with “μL” for “pt”

FAAH [2] = target: T1, FAAH; assay: Assay Method 1: FAAH assay, T84 cell homogenate, 3H-anandamide hydrolysis; settings: 3H-AEA tracer 200 nM, 1 h at rt
Summary of the method: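 Homogenate of human T84 cells in pH 9 Tris/EDTA buffer with 0.02% Triton X-100 was incubated with compound and 200 nM final 3H-anandamide for 1 h at rt. Released [3H]ethanolamine was separated from substrate through activated charcoal by centrifugation and quantified by scintillation counting.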

T1 sequence (O00519 whole entry): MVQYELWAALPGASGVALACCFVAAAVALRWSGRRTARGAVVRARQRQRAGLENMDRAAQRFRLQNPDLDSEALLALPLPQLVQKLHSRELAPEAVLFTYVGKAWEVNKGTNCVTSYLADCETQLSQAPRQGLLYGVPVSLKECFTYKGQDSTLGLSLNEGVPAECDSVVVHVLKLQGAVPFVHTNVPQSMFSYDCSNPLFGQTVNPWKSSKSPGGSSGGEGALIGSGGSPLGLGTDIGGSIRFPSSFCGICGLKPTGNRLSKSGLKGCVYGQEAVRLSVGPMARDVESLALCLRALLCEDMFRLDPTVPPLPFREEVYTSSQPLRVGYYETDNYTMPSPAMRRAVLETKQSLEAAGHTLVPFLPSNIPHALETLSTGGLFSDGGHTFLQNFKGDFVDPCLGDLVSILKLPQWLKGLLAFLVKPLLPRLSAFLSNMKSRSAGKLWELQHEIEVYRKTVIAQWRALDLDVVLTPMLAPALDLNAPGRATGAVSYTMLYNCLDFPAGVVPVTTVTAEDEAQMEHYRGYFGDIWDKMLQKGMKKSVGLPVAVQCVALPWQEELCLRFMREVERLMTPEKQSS

SMILES | IC50 (rat FAAH) [nM] | IC50 (FAAH [2]) [nM] | also measured
O=C(Nc1ccncn1)N1CCN(Cc2ccc(Br)c(Br)c2)CC1 [Example 154, 4-(3,4-Dibromo-benzyl)-piperazine-1-carboxylic acid pyrimidin-4-ylamide] | 2000 |  | IC50 (FAAH [1]): 282 nM
O=C(Nc1ncccn1)N1CCN(Cc2ccc3c(c2)OCO3)CC1 [Example 148, 4-Benzo[1,3]dioxol-5-ylmethyl-piperazine-1-carboxylic acid pyrimidin-2-ylamide] | 10000 |  | IC50 (FAAH [1]): > 10000 nM
O=C(Nc1ccccn1)N1CCN(Cc2cnc3ccccc3c2)CC1 [Example 143, 4-Quinolin-3-ylmethyl-piperazine-1-carboxylic acid pyridin-2-ylamide] | 8000 |  | IC50 (FAAH [1]): 1800 nM
O=C(Nc1ccc(F)cc1)N1CCN(Cc2ccc3c(c2)OCO3)CC1 [Example G, 4-Benzo[1,3]dioxol-5-ylmethyl-piperazine-1-carboxylic acid (4-fluoro-phenyl)-amide, reference compound] | 10000 | 1600 | 
CN(C(=O)N1CCN(Cc2ccc(Br)c(Br)c2)CC1)c1ccccc1 [Example 160, 4-(3,4-Dibromo-benzyl)-piperazine-1-carboxylic acid methyl-phenyl-amide] | 10000 |  | IC50 (FAAH [1]): > 10000 nM
O=C(Nc1ccccc1F)N1CCN(Cc2cnc3ccccc3c2)CC1 [Example 112, 4-Quinolin-3-ylmethyl-piperazine-1-carboxylic acid (2-fluoro-phenyl)-amide] | 370 | 61 | 
O=C(Nc1ccccc1)N1CCN(Cc2ccc3ccccc3n2)CC1 [Example 19, 4-Quinolin-2-ylmethyl-piperazine-1-carboxylic acid phenylamide] | 350 | 19 | 
O=C(Nc1ccccc1)N1CCN(Cc2ccc3ccc4cccc5ccc2c3c45)CC1 [Example 68, 4-Pyren-1-ylmethyl-piperazine-1-carboxylic acid phenylamide] | 610 | 95 | 
O=C(Nc1ccc(F)cc1F)N1CCN(Cc2cnc3ccccc3c2)CC1 [Example 111, 4-Quinolin-3-ylmethyl-piperazine-1-carboxylic acid (2,4-difluoro-phenyl)-amide] | 2000 | 250 | 
COc1cc(Br)cc(CN2CCN(C(=O)Nc3ccccc3)CC2)c1O [Example 26, 4-(5-Bromo-2-hydroxy-3-methoxy-benzyl)-piperazine-1-carboxylic acid phenylamide] | 130 | 79 | 
O=C(Nc1ccccc1)N1CCN(Cc2ccc(Br)c(Br)c2)CC1 [Example 162, 4-(3,4-Dibromo-benzyl)-piperazine-1-carboxylic acid phenylamide hydrochloride] |  |  | IC50 (FAAH [2]; hydrochloride): 38 nM; IC50 (rat FAAH; hydrochloride): 270 nM
O=C(Nc1cccc(F)c1)N1CCN(Cc2ccc(Br)c(Br)c2)CC1 [Example 85, 4-(3,4-Dibromo-benzyl)-piperazine-1-carboxylic acid (3-fluoro-phenyl)-amide] |  | 19 | 
Cc1ccc(NC(=O)N2CCC(Cc3ccccc3)CC2)cc1 [Example 113, 4-Benzyl-piperidine-1-carboxylic acid p-tolylamide] |  | 8000 | 
O=C(Nc1ccc(F)cc1)N1CCN(Cc2ccc3ccccc3n2)CC1 [Example 58, 4-Quinolin-2-ylmethyl-piperazine-1-carboxylic acid (4-fluoro-phenyl)-amide] |  | 100 | 

Further lines, with some results ahead:

IC50 (rat FAAH) [nM] | IC50 (FAAH [2]) [nM] | SMILES | also measured
1400 | 26 | Cn1c(CN2CCN(C(=O)Nc3ccccc3)CC2)cc2ccccc21 [Example 22, 4-(1-Methyl-1H-indol-2-ylmethyl)-piperazine-1-carboxylic acid phenylamide] | 
8000 | 350 | O=C(Nc1ccccc1)N1CCN(Cc2ccc3c(c2)OCO3)CC1 [Example B, 4-Benzo[1,3]dioxol-5-ylmethyl-piperazine-1-carboxylic acid phenylamide, reference compound] | 
430 | 54 | O=C(Nc1ccc(F)cc1)N1CCN(Cc2ccc3ccccc3c2)CC1 [Example 57, 4-Naphthalen-2-ylmethyl-piperazine-1-carboxylic acid (4-fluoro-phenyl)-amide] | 
 | 110 | O=C(Nc1ccccc1)N1CCN(Cc2cccc(S(=O)(=O)c3ccc(Cl)cc3)c2)CC1 [Example 72, 4-[3-(4-Chloro-benzenesulfonyl)-benzyl]-piperazine-1-carboxylic acid phenylamide] | 
 | 2000 | O=C(Nc1ccccc1)N1CCN(Cc2ccc(Oc3ccccc3)cc2)CC1 [Example 74, 4-(4-Phenoxy-benzyl)-piperazine-1-carboxylic acid phenylamide] | 
 | 240 | O=C(Nc1cccc(Cl)c1)N1CCN(Cc2ccc(Br)c(Br)c2)CC1 [Example 92, 4-(3,4-Dibromo-benzyl)-piperazine-1-carboxylic acid (3-chloro-phenyl)-amide] | 
 | 1600 | COc1ccc2cc(CN3CCN(C(=O)Nc4ccccc4)CC3)ccc2c1 [Example 66, 4-(6-Methoxy-naphthalen-2-ylmethyl)-piperazine-1-carboxylic acid phenylamide] | 
 | 120 | O=C(Nc1cccc(F)c1)N1CCN(Cc2cnc3ccccc3c2)CC1 [Example 97, 4-Quinolin-3-ylmethyl-piperazine-1-carboxylic acid (3-fluoro-phenyl)-amide] | 
 | 470 | COc1ccc(CN2CCN(C(=O)Nc3ccccc3)CC2)cc1 [Example 36, 4-(4-Methoxy-benzyl)-piperazine-1-carboxylic acid phenylamide] | 

— patent publication US9169224B2, “Piperazinyl and piperidinyl ureas as modulators of fatty acid amide hydrolase” (Janssen Pharmaceutica NV, priority 2004, dated 2015)
